Laboratory results published in ChEMBL document CHEMBL1201862, “PubChem BioAssay data set” (2004).
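A five-concentration, 48-hour dose response in 96-well plates underlies each endpoint, interpolated linearly between surrounding concentrations. The concentration for 50% growth inhibition is given as GI50.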 Active and inactive are the calls of the source. Rule as the data show it: active = GI50 up to about 1.1 µM and inactive = higher.

How the values were obtained:
Assay in all cases: DTP human tumour cell line panel, 48 h
786-0 = tested on: 786-0
A498 = tested on: A498
ACHN = tested on: ACHN
HCC 2998 = tested on: HCC 2998
HL-60 = tested on: HL-60
HOP-62 = tested on: HOP-62
IGROV-1 = tested on: IGROV-1
NCI-H226 = tested on: NCI-H226
NCI-H23 = tested on: NCI-H23
SK-MEL-28 = tested on: SK-MEL-28
SN12C = tested on: SN12C
TK-10 = tested on: TK-10
UACC-257 = tested on: UACC-257
UO-31 = tested on: UO-31
OVCAR-3 = tested on: OVCAR-3
OVCAR-4 = tested on: OVCAR-4

Measured: GI50

CN(C(=O)C12C3C4C1C1C4(C(=O)C45C6C7C4C4C5C6C74C)C3C12C)C(C)(C)C (stereo not given)
inactive: 786-0 67.9 µM | A498 55.3 µM | ACHN 74.3 µM | HCC 2998 91 µM | HL-60 14.8 µM | HOP-62 > 100 µM | IGROV-1 > 100 µM | NCI-H226 72.3 µM | NCI-H23 70.5 µM | SK-MEL-28 > 100 µM | SN12C > 100 µM | TK-10 > 100 µM | UACC-257 32.5 µM | UO-31 38.5 µM

COC(=O)C1CC2C=CC=CC(=O)C2(C)C1 (stereo not given)
inactive: 786-0 36.6 µM | A498 36.2 µM | ACHN 59.6 µM | HL-60 25.8 µM | HOP-62 > 100 µM | IGROV-1 > 100 µM | NCI-H226 56.4 µM | NCI-H23 44.3 µM | OVCAR-3 > 100 µM | OVCAR-4 83.2 µM | SN12C 81.1 µM | TK-10 > 100 µM | UACC-257 38.7 µM | UO-31 > 100 µM

OCC1OC(NO)C(O)C(O)C1O (stereo not given)
inactive: 786-0 > 100 µM | A498 > 100 µM | ACHN > 100 µM | HCC 2998 > 100 µM | HL-60 > 100 µM | HOP-62 > 100 µM | IGROV-1 > 100 µM | NCI-H226 > 100 µM | NCI-H23 > 100 µM | OVCAR-3 > 100 µM | OVCAR-4 > 100 µM | SK-MEL-28 > 100 µM | SN12C > 100 µM | TK-10 > 100 µM | UACC-257 > 100 µM

CCOC(=O)C(=O)/C=C(\C)Nc1c(NC2OCC(OC(C)=O)C(OC(C)=O)C2OC(C)=O)nc(SC)[nH]c1=O (stereo not given)
inactive: 786-0 > 100 µM | A498 > 100 µM | ACHN > 100 µM | HCC 2998 > 100 µM | HL-60 > 10 µM | HOP-62 > 100 µM | IGROV-1 > 100 µM | NCI-H23 > 100 µM | OVCAR-3 > 100 µM | OVCAR-4 > 100 µM | SK-MEL-28 > 100 µM | SN12C > 100 µM | TK-10 > 100 µM | UACC-257 > 100 µM | UO-31 > 100 µM

C[N+](C)(C)CC(=O)N/N=C(/Cc1cc(=O)oc2cc(O)ccc12)C(=O)Nc1ccc(Cl)cc1
inactive: 786-0 > 100 µM | A498 > 100 µM | ACHN > 100 µM | HCC 2998 > 100 µM | HL-60 > 100 µM | HOP-62 > 100 µM | IGROV-1 > 100 µM | NCI-H23 > 100 µM | OVCAR-3 > 100 µM | OVCAR-4 > 100 µM | SK-MEL-28 > 100 µM | SN12C > 100 µM | TK-10 > 100 µM | UACC-257 > 100 µM | UO-31 > 100 µM

CC(C)N(C(=O)C12C3C4C1C1C2C3C41C(O)C(C)(C)C)C(C)C (stereo not given)
inactive: 786-0 > 50 µM | A498 > 50 µM | ACHN > 50 µM | HCC 2998 > 50 µM | HL-60 > 50 µM | HOP-62 > 50 µM | IGROV-1 > 50 µM | OVCAR-3 > 50 µM | SK-MEL-28 > 50 µM | SN12C > 50 µM | UO-31 > 50 µM

CC[N+](CC)(CC)Cc1cc2ccccc2n1C(=O)OC
inactive: 786-0 > 100 µM | ACHN > 100 µM | HCC 2998 > 100 µM | HL-60 > 100 µM | HOP-62 > 100 µM | IGROV-1 > 100 µM | NCI-H226 > 100 µM | NCI-H23 > 100 µM | OVCAR-3 70.6 µM | OVCAR-4 > 100 µM | SK-MEL-28 > 100 µM | TK-10 > 100 µM | UACC-257 > 100 µM | UO-31 > 100 µM

CC(C)(C)c1cc(C(=O)O)c(C(c2ccccc2)c2ccccc2C(=O)O)c(C(=O)O)c1 (stereo not given)
inactive: 786-0 > 100 µM | ACHN 20.7 µM | HL-60 > 100 µM | HOP-62 > 100 µM | NCI-H226 35 µM | NCI-H23 > 100 µM | OVCAR-3 > 100 µM | OVCAR-4 19.9 µM | SK-MEL-28 > 100 µM | SN12C 21.9 µM | TK-10 > 100 µM | UACC-257 > 100 µM | UO-31 > 100 µM

CCCCCCCCCCCCCP(=O)(OC)OC
inactive: 786-0 19.5 µM | ACHN 18.5 µM | HCC 2998 21.5 µM | HL-60 15.6 µM | HOP-62 14.9 µM | IGROV-1 19.3 µM | NCI-H226 19.2 µM | NCI-H23 18.7 µM | OVCAR-3 20.2 µM | OVCAR-4 19.8 µM | SK-MEL-28 24.3 µM | SN12C 20.2 µM | TK-10 17.8 µM | UACC-257 19.4 µM | UO-31 16.3 µM

CN/N=C(\C)c1c(O)cc(C)oc1=O
inactive: 786-0 > 100 µM | A498 > 100 µM | ACHN > 100 µM | HCC 2998 > 100 µM | HL-60 > 100 µM | HOP-62 > 100 µM | NCI-H226 > 100 µM | NCI-H23 > 100 µM | OVCAR-4 > 100 µM | SK-MEL-28 > 100 µM | SN12C > 100 µM | TK-10 > 100 µM | UACC-257 > 100 µM | UO-31 > 100 µM

Nc1ccc(C(=O)N/C(=C\c2cccc([N+](=O)[O-])c2)c2nc3ccccc3[nH]2)cc1
inactive: 786-0 28.4 µM | A498 61.8 µM | ACHN 40.6 µM | HCC 2998 > 100 µM | HL-60 > 81.7 µM | HOP-62 21.8 µM | IGROV-1 28.5 µM | NCI-H226 > 100 µM | NCI-H23 > 75.9 µM | OVCAR-3 50.2 µM | OVCAR-4 25.1 µM | SK-MEL-28 > 92.9 µM | SN12C 83.9 µM | TK-10 49 µM | UO-31 20.6 µM

CC1(C)O[C@@H](CC/C=C/CO)[C@H](CC/C=C/CO)O1
inactive: 786-0 > 100 µM | A498 > 100 µM | ACHN > 100 µM | HCC 2998 > 100 µM | HL-60 63.8 µM | HOP-62 > 100 µM | IGROV-1 > 100 µM | NCI-H226 > 100 µM | NCI-H23 > 100 µM | OVCAR-3 > 100 µM | OVCAR-4 > 100 µM | SK-MEL-28 > 100 µM | SN12C > 100 µM | TK-10 > 100 µM | UACC-257 > 100 µM

CC(C)NCCNC(=O)c1ccccc1Nc1c(Cl)cccc1Cl
inactive: 786-0 4.16 µM | ACHN 17.4 µM | HCC 2998 2.84 µM | HL-60 8.71 µM | HOP-62 11.6 µM | IGROV-1 16 µM | NCI-H226 13.5 µM | NCI-H23 17.7 µM | OVCAR-3 12.6 µM | OVCAR-4 14.4 µM | SK-MEL-28 14.4 µM | SN12C 13.2 µM | TK-10 11.8 µM | UACC-257 10.3 µM | UO-31 10.1 µM

CCOC(=O)c1cc(/C=C/C(C)=C/C(=O)OC)n(C)c1C
inactive: 786-0 > 100 µM | A498 > 100 µM | ACHN 45.2 µM | HCC 2998 92.5 µM | HL-60 23.9 µM | HOP-62 > 100 µM | IGROV-1 > 100 µM | NCI-H226 > 100 µM | NCI-H23 > 100 µM | OVCAR-3 58.3 µM | OVCAR-4 60.7 µM | SN12C > 100 µM | TK-10 > 100 µM | UACC-257 78.2 µM | UO-31 > 100 µM

O=C(O)CCN(CCCN(CCC(=O)O)CCC(=O)O)CCC(=O)O
inactive: 786-0 > 100 µM | A498 > 100 µM | ACHN > 100 µM | HCC 2998 > 100 µM | HL-60 > 100 µM | HOP-62 > 100 µM | IGROV-1 > 100 µM | NCI-H23 > 100 µM | OVCAR-3 > 100 µM | OVCAR-4 > 100 µM | SK-MEL-28 > 100 µM | SN12C > 100 µM | TK-10 > 100 µM

CC(=O)C=C1Nc2ccccc2N1
inactive: 786-0 > 100 µM | ACHN > 100 µM | HCC 2998 > 100 µM | HL-60 > 100 µM | IGROV-1 > 100 µM | NCI-H226 > 100 µM | NCI-H23 > 100 µM | OVCAR-3 > 100 µM | OVCAR-4 > 100 µM | SK-MEL-28 > 100 µM | SN12C > 100 µM | UACC-257 > 100 µM | UO-31 > 100 µM

C=C1C(=O)c2cc3c(cc2C(c2cc(OC)c(OC)c(OC)c2)[C@@H]1C(=O)O)OCO3 (stereo not given in full)
inactive: 786-0 37 µM | A498 32.6 µM | ACHN > 100 µM | HCC 2998 > 100 µM | IGROV-1 82 µM | NCI-H226 > 100 µM | NCI-H23 57.7 µM | OVCAR-3 23.2 µM | SK-MEL-28 69.7 µM | SN12C 43.1 µM | TK-10 > 100 µM | UACC-257 67 µM | UO-31 58.6 µM

CC12CC[C@H](O)C(C)(C)[C@H]1CC[C@](C)(O)C2COc1ccc2ccc(=O)oc2c1 (stereo not given in full)
inactive: 786-0 > 100 µM | A498 > 100 µM | ACHN > 100 µM | HCC 2998 > 100 µM | HL-60 53.1 µM | HOP-62 > 100 µM | IGROV-1 > 100 µM | NCI-H226 > 100 µM | NCI-H23 > 100 µM | OVCAR-3 > 100 µM | OVCAR-4 > 100 µM | SK-MEL-28 > 100 µM | SN12C > 100 µM | TK-10 > 100 µM | UACC-257 > 100 µM | UO-31 > 100 µM

Cc1ccc2[nH]c(Sc3c([N+](=O)[O-])ncn3C)nc2c1
inactive: 786-0 27.8 µM | A498 25.1 µM | ACHN 33 µM | HCC 2998 15.7 µM | HOP-62 > 100 µM | IGROV-1 22.1 µM | NCI-H226 12.8 µM | NCI-H23 18.6 µM | OVCAR-3 17.5 µM | OVCAR-4 18.1 µM | SK-MEL-28 37.4 µM | SN12C 18 µM | TK-10 44.9 µM | UACC-257 12.6 µM | UO-31 27.5 µM
